The values that follow come from patent US20050239899A1, “Beta-secretase inhibitors” (priority 2002, published 2005).

As usually defined, the IC50 is the point on the concentration scale where inhibition reaches its midpoint. Read a low IC50 as greater potency in that assay.

The target of one test is T1, rhBACE (Homo sapiens, UniProt P56817).
T1 construct: purchased R&D systems 931-AS
The experiment in a line: Fluorescence BACE assay. The format is biochemical. The conditions noted are these: EDANS/Dabcyl peptide substrate, pH 5, 2 hours at 37 C. How it is done: The inhibitory activity of the compounds of the invention was shown in an in vitro assay, namely a fluorescence BACE assay.
The assay was set up in triplicate wells of 96 well black plate. rhBACE was diluted to 1 unit/well in […] (PBS +0.5% Triton-X 100, pH 5). BACE enzyme (obtained from R&D systems (ca.No. 931-AS), reference: Vasser et al., 1999, Science 286, 735-741) was incubated with various concentrations of inhibitor compound (10 nM to 500 µM) for 5 min; Reaction was started by adding peptide substrate (obtained from BACHEM (cat. No. M-2470), reference: Ermolieff et al., Biochemistry 39 (2000) 12450-56) with EDANS/Dabcyl labels. After incubation for 2 hours at 37 C the results were read in fluoroplate reader at 355 nm/486 nm.

A further test relates to cells. The experiment in a line: cellular assay (activity in cells). In kind it is cell-based. The text has this: As combined pharmacophore, for example, a combination of common pharmacophore for aspartyl proteases and a surface-based (surf2lead®) pharmacophore of the crystallized beta-secretase:OM922 complex can be used. For the common pharmacophore of the aspartyl proteases the active center was employed for generation of the pharmacophore. For the surf2lead approach the surface of the active center of the beta-secretase: OM922 complex crystallized with inhibitor was used for generation of the pharmacophore. A query for PHACIR screening was generated from a combination of the two pharmacophores. The compounds of the focused library identified by virtual screening then can be subjected to an in vitro assay, e.g. a fluorescence BACE assay, or a cellular assay in order to determine its possible inhibitory action.

T1 sequence (P56817 46-501): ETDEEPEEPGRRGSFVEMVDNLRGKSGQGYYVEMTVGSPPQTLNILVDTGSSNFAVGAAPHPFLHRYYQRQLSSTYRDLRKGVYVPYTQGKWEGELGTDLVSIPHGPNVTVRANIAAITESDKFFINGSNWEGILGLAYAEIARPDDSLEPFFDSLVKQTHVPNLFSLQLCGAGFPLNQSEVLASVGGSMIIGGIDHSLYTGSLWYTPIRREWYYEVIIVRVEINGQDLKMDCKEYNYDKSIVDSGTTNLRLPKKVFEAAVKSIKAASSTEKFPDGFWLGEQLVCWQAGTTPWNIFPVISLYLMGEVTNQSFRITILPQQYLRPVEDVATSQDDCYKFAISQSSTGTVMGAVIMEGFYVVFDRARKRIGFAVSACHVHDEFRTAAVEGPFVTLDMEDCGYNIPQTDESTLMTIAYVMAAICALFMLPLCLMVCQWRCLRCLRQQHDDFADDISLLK

On rhBACE, `Oc1c(Cl)cc(Cl)cc1/C=N/Nc1ncnc2sc3c(c12)CCCC3` [ID5] gave an IC50 of 53 µM.
Consider `C=CCn1c(SCc2ccc(Cl)cc2)nc2sc3c(c2c1=N)CCCC3` [ID3], for which it took 10 µM to reach half-maximal inhibition against rhBACE (IC50). Further, the “activity in cells / cell permeability” value with cells is given as “especially cell-permeable active compounds”.
For `Oc1c(Cl)cc(Cl)cc1/C=N/Nc1c(Cl)cncc1Cl` [ID2], the IC50 against rhBACE is 29 µM.
`O=C(Nc1cc(-c2ccc(Cl)cc2)nn1-c1ccc(I)cc1)C1CCC1` [ID1] registered an IC50 against rhBACE of 45 µM.
On the same count and under the same terms, the figure for `O=[N+]([O-])c1cc(C(F)(F)F)cc([N+](=O)[O-])c1N/N=C/c1cc(Cl)cc(Cl)c1O` [ID6] is 39.3 µM.
For `C/C(=N\Nc1ccccc1)c1cc(Cl)cc(Cl)c1O` [ID7], it took 14.4 µM to reach half-maximal inhibition on rhBACE (IC50). Besides, the “activity in cells / cell permeability” value in the test with cells was “especially cell-permeable active compounds”.
Take `C/C(=N\OC(=O)c1c(-c2c(Cl)cccc2Cl)noc1C)c1ccccc1O` [ID4]: the IC50 on rhBACE lay within 140 to 170 µM.
